Data set [1] concerns hereditary obese and diabetic mice C57BL/ksj db/db. Put plainly: polydipsia/polyuria and urinary sugar excretion in db/db mice fed compound in diet. Format: in vivo. Here is the method: Ten male db/db mice at 30-32 weeks of age were randomly divided into two groups (n = 5), ie, a control group and compound 17 group. The animals were allowed free access to diet and drinking water. The diet was mouse II rat standard food CE-2 powder from Clea Japan, which was pelletized after a solution of compound 17 in acetone was applied and acetone was evaporated by air-drying. Compound 17 was added in an amount of 0.1% of the diet. A control diet was also pelletized after the same amount of acetone was applied.
Both groups received the control diet for first 7 days to test feed intake, urine volume, urinary sugar level and urinary sugar excretion level. During the following 5 days, the treatment group received the diet containing 0.1% compound 17. The treatment group was bred with the control diet again for further 4 days and then bred with the diet containing 0.1% compound 17 again for 5 days on […]. As db/db mice individually bred in metabolic cages show wide variation in feed and drinking water intakes, 5 animals were housed in a rat metabolic cage and the values obtained in each cage were divided by 5 and shown in Fig. 1. […] Urinary sugar excretion level is 50% or less as compared with the control period even 24 hours after administration is stopped, showing that compound 17 has a carry-over effect.

Another data set deals with PPARγ. Put plainly: transfer (reporter) gene activity assay in transfected COS-1 cells, PPARγ. It is filed as cell-based. To be noted: luciferase reporter, 20 hours. Here is the method:
Transfection was performed by a standard procedure using a LipofectAMINE reagent from Life Technologies. A 35 mm Petri dish containing 1 x 10^5 cells dispersed in 2 ml of Dulbecco's minimum medium (DMEM) containing 10% fetal bovine serum was incubated in a CO2 incubator for 17 hours. Then, the medium was removed and cells adhered to the Petri dish were washed with phosphate buffered physiological saline (PBS), after which transfection was performed using a LipofectAMINE reagent. That is, […] of a minimum serum medium OptiMEM (Life Technologies) containing […] of a plasmid bearing the luciferase gene whose expression is controlled by PPAR-responsive elements, […] of a PPAR expression plasmid and 2 mg of a plasmid bearing the β-galactosidase gene for monitoring transfection efficiency was preliminarily mixed with […] of OptiMEM containing 50 ml of LipofectAMINE dissolved therein, and the mixed solution was maintained at room temperature for 15 minutes. A Petri dish containing a mixture of 100 ml of this mixed solution and 400 ml of OptiMEM was incubated in a CO2 incubator at 37°C for 3 hours. The transfection medium was aspirated off from the Petri dish, which was supplied with DMEM containing 10% serum treated with activated carbon and a test compound and incubated at 37°C for 20 hours. […] The medium also contains a solvent for test compounds dimethyl sulfoxide (final concentration 0.1%).
After the medium in the Petri dish was aspirated off, […] of a lysing solution for cultured cells (25 mM Tris phosphate buffer (pH 7.8), 2 mM 1,2-diaminocyclo-hexane-N, N,N',N'-tetraacetate, 10% glycerol, 1% Triton X-100) was added and cells were scraped with rubber policeman. Cells were completely disrupted by freezing and thawing and then centrifuged at 4°C (15,000 rpm, 2 min), and the supernatants were used as test samples. […] The β-galactosidase for monitoring transfection efficiency was measured for fluorescence in a luminometer using Luminescent β-galactosidase detection kit II (Clontech). […]

In a further data set the test system is db/db mice. Kind of data set: blood glucose and urinary sugar excretion in db/db mice. It is filed as in vivo. The following applies: 60 mg/kg orally once daily, Fig. 2. On the procedure:
Blood was collected from the tail vein of ten db/db mice at 12 weeks of age 2 days before the start of experiments, and the animals were divided into two groups each having an average blood glucose level of 720-740 mg/dl. One group was a control group, while the other group orally received compound 25 at 60 mg/kg once daily. […] SA solid diamond denotes the control group, solid triangle denotes the: group treated with compound 1 at 25 mg/kg, open square denotes the: group treated with compound 1 at 50 mg/kg, and cross denotes the: group treated with compound 25 at 50 mg mg/kg. Each group consists of 10 animals.
Blood was collected from the tail vein of ten db/db mice at 12 weeks of age, and the animals were divided into two groups, ie, a control group and a compound 25 group, each having an average blood glucose level of about 700 mg/dl and housed in urine-collecting cages. A small amount of blood was collected from the tail vein on days 1, 2, 3, 5, 7 and 10 from the start of experiments to determine blood glucose. Urine was collected for 24 hours at the same intervals to determine urinary sugar excretion level by the oxygen method.

The next data set has as its system NOD mice. Put plainly: prevention of onset of type I diabetes in NOD mice. Format: in vivo, female NOD mice. To be noted: 10 animals. On the procedure: Each group consists of 10 animals.
The mice were bred for 24 weeks, during which they were tested for urinary sugar excretion using an urinary sugar detection tape on Monday and Friday (Fig. 3).

In the next data set the test system is rat hypertension model. Put plainly: prevention of aneurysms in DOCA/saline one-kidney rat hypertension model. Format: in vivo, male Wistar rats. Here is the method: Compounds of the present invention show the effect of preventing periarteritis nodosa and aneurysms. In order to evaluate the effect of preventing aneurysms, a quantitatively assayable rat hypertension model was used so that aneurysms formed in mesenteric arteries were measured and statistically processed to determine the effect. The membrane was removed with forceps from isolated mesenterium and the remaining arterioles were fixed with formalin and then fat-stained. The number of arterioles and the number of aneurysms were counted in triplicate to calculate the average number of aneurysms per arteriole. As a hypertension model, rats with one kidney extracted to decrease renal function were given 0.9% saline as drinking water having a slightly higher osmosis than plasma and subcutaneously received 10 mg/kg of a mineral corticoid deoxycorticosteron acetate (DOCA) weekly. The left kidney was extracted from male Wistar rats (12 animals) under anesthetization. The rats deprived of kidney were randomly divided into two groups (n = 6) after a period of recovery for a week. One of the two groups was a control group and the other received compound 1. […] The experimental period was 7 weeks, during which feed intake, drinking water intake, urine volume, body weight and blood pressure were measured every 3 days from the start of experiments. […]

The subject of data set [2] is streptozotocin-induced diabetes. Kind of data set: streptozotocin-induced diabetes in rats. It is filed as in vivo, male Wistar rats. The following applies: 100 mg/kg orally once daily; for Body weight / Drinking water intake / Feed intake / Urinary sugar excretion / Urine volume: n=8. Here is the method: Streptozotocin (50 mg/kg) was injected into the tail vein of male Wistar rats weighing about 250 g to prepare an insulin deficiency diabetes model. Compound 1 suspended in a gum arabic solution was orally administered at 100 mg/kg once daily, starting immediately after administration of streptozotocin. The animals were housed in a urine-collecting cage for 24 hours on days 7 and 14 to collect urine for 24 hours. […] However, weight gain was 80 g/week in the healthy group in contrast with only 18 g/week in the diabetes control group. […] This means that administration of compound 1 improved metabolism to greatly reduce urinary sugar excretion.

Data set [3] relates to Ehrlich ascites tumor cells. Kind of data set: hyperlipidemia (cachexia marker) in Ehrlich ascites tumor bearing mice. Format: in vivo, male ddY-strain mice. To be noted: for Body weight / Serum neutral Serum neutral fat: day 8, mean±SD, n=8. The source says: In these experiments, serum neutral fat was selected as an indication of cachexia to serve as an auxiliary marker for knowing dynamics of TNFα that is difficult to quantitize, because it is difficult to exactly measure blood TNFα and it is easier to measure serum neutral fat than blood TNFα. Forty male ddY-strain mice at 5 weeks of age were randomly divided into 5 groups (n = 8), among which 4 groups were intraperitoneally implanted with 2 x 10^6 Ehrlich ascites tumor cells. The group implanted with no tumor cells was a healthy control group. From 24 hours after implantation of tumor cells, 3 groups intraperitoneally received 100-400 mg/kg of compound 1, while the other group received a solvent 0.1% Tween 80 (0.2 ml) alone free from compound 1. On day 8 after implantation of tumor cells, blood was collected from the heart of tumor bearing mice to assay neutral fat in separated serum and detect blood TNFα by immunoelectrophoresis.

For a further data set, the system named is serum lipid. To be noted: cited from earlier work.
A further data set has as its system DOCA hypertension rats. To be noted: orally administered to DOCA hypertension rats; cited from earlier work.
The mark [4] stands for this setting: diet containing 0.1% compound, Fig. 1.
The mark [5] stands for this setting: 50 mg/kg intraperitoneally twice weekly.
[6] abbreviates: Dose 100 mg/kg intraperitoneally.
The mark [7] stands for this setting: Dose 200 mg/kg intraperitoneally.
Where [8] appears, read: Dose 400 mg/kg intraperitoneally.
Setting [9] is: groups treated with 100-400 mg/kg.

As to `COc1c(Cl)c(C)c(C=O)c(O)c1C/C=C(C)/C=C/[C@@]1(C)[C@H](C)CCC(=O)[C@@H]1C` [Compound 17, 4-O-MeAS], the “Urinary sugar excretion level as compared with the control period” value in data set [1] (24 hours after administration is stopped, 0.1% in diet) is on record as at most 50%. In addition, in data set [1] (setting [4]), the Urine volume entry is recorded as “sharply decrease”, the “urinary sugar excretion level” value is on record as “sharply decrease” and the urinary sugar level result is “sharply decrease”.

On to `COc1c(C=O)c(C)c(Cl)c(O)c1C/C=C(C)/C=C/C1(C)C(C)CCC(=O)C1C` (centres unmarked) [Compound 21, 2-O-methylascochlorin], for which, in the data set on PPARγ, the “Activation of receptors PPARγ” value is reported as “++ (Activation peak appears at 10^-5-10^-4M.)”.

In the case of `COc1c(C=O)c(C)c(Cl)c(O)c1C/C=C(\C)CC/C=C(\C)C1CC(=O)C(C)(C)O1` (centres unmarked) [Compound 7, 2-O-methyl AF], in the data set on PPARγ, the “Activation of receptors PPARγ” value is recorded as “+++ (Activation peak appears at 10^-6-10^-5M.)”.

Turning to `CC(/C=C/C1(C)C(C)CCC(=O)C1C)=C\Cc1c(O)c(C=O)c(C)c(Cl)c1OCC(=O)O` (centres unmarked) [Compound 25], the “Activation of receptors PPARγ” value in the data set on PPARγ is “+++ (Activation peak appears at 10^-6-10^-5M.)”. For the same compound, the blood glucose loss entry with db/db mice (day 7) is recorded as “over 30%”. Besides, the urinary sugar entry with db/db mice (day following the start of administration) was “decreased to a half”. Besides, the blood glucose entry in the data set on db/db mice (from day 3 of administration) is “significantly decreased”. The “urinary sugar excretion level loss” value with db/db mice (on and after day 3) is on record as “over 90%”. Moreover, the “incidence of type I diabetes at week 24” value in the data set on NOD mice (setting [5]) is recorded as 10%.

`CC(/C=C/C1(C)C(C)CCC(=O)C1C)=C\Cc1c(O)c(C=O)c(C)c(Cl)c1OC(=O)CCCC(=O)O` (centres unmarked) [Compound 29, 4-O-(4-Carboxybutanoyl)ascochlorin]: the “Activation of receptors PPARγ” value in the data set with PPARγ is reported as “+++ (Activation peak appears at 10^-6-10^-5M.)”.

On to `C/C(=C\Cc1c(O)c(Cl)c(C)c(C=O)c1O)CC/C=C(\C)C1CC(=O)C(C)(C)O1` (centres unmarked) [Compound 1, Ascofuranone], for which, in the data set on PPARγ, the “Activation of receptors PPARγ” value is listed as “+++ (Activation peak appears at 10^-6-10^-5M.)”. The “effect of suppressing pressure rise (blood pressure)” value with rat hypertension model (orally 100 mg/kg from week 3, compared with control group) is on record as “any significant effect of suppressing pressure rise was not observed”. Besides, in the data set on rat hypertension model (orally 100 mg/kg from week 3, dissected at week 7, n = 6), the “aneurysms (mean ± SE) per mesenteric artery” value is reported as 0.51 ± 0.37 aneurysms per mesenteric arter. This compound displayed a weight gain in data set [2] of 30 g/week. In data set [2] (Day 7), this compound registered a Body weight of 307.7±4.8 g/rat, a Drinking water intake of 99.9±13.0 ml/rat/day, a Feed intake of 32.9±1.9 g/rat and a Urinary sugar excretion of 5.39±0.55 g/rat/day. Also, the Urine volume in data set [2] (Day 7) was 74.6±6.4 ml/rat/day. In data set [2] (Day 14), this compound had a Body weight of 318.3±6.8 g/rat, a Drinking water intake of 106.9±18.0 ml/rat/day, a Feed intake of 32.6±2.9 g/rat and a Urinary sugar excretion of 5.78±1.09 g/rat/day. Moreover, the Urine volume in [2] (Day 14) was 79.7±12.5 ml/rat/day. In data set [2] (day 7), the “drinking water intake as compared with the diabetes control group” value turned out to be 41.4% and the “feed intake decrease as compared with the diabetes control group” value is listed as 14.3%. In data set [2] (day 14), the “drinking water intake as compared with the diabetes control group” value was 43.6% and the “feed intake decrease as compared with the diabetes control group” value worked out at 23.3%. Moreover, the “incidence of type I diabetes at week 24” value in the data set on NOD mice (25 mg/kg intraperitoneally twice weekly) turned out to be 30%. Moreover, the “incidence of type I diabetes at week 24” value with NOD mice (setting [5]) was found to be 10%. Also, in data set [3] (setting [6]), the Body weight was found to be 38.0±1.0 g/mouse and the “Serum neutral Serum neutral fat” value was 258.2 ± 53.2 mg/dL. In data set [3] (setting [7]), the Body weight is 36.7±0.7 g/mouse and the “Serum neutral Serum neutral fat” value came out at 185.1 ± 26.2 mg/dL. In addition, in [3] (setting [8]), the Body weight is 31.3±1.1 g/mouse and the “Serum neutral Serum neutral fat” value came out at 99.1 ± 18.3 mg/dL. In [3] (setting [9]), the “blood TNFα” value is listed as “downward tendency”, the blood glucose level entry was “significant increase” and the “increase of serum neutral fat” value is “dose-dependently suppressed”. Also, in the data set on serum lipid (orally administered to rodents), the toxicity result is “very low toxicity”. The “effect on serum lipid” value in the data set with serum lipid (orally administered, rats bred with a standard diet or a high-fat diet) is on record as “lowering serum lipid”. In the data set on DOCA hypertension rats, the “indications of cardiovascular diseases” value is “improves indications of cardiovascular diseases” and the pressure rise result was “does not suppress pressure rise”.

For the compound `CC(/C=C/C1(C)C(C)CCC(=O)C1C)=C\Cc1c(O)c(C=O)c(C)c(Cl)c1OC(=O)c1cccnc1` (centres unmarked) [Compound 26], the “Activation of receptors PPARγ” value in the data set on PPARγ is “++ (Activation peak appears at 10^-5-10^-4M.)”.

These data come from EP1176134A1, “LIGANDS OF NUCLEAR RECEPTORS PPAR'S” (Nuclear Receptor Research Limited, priority 1999, dated 2000).
